From patent publication US20240181092A1, “DIAGNOSTIC METHODS OF PROSTATE CANCER” (NOVARTIS AG, priority 2021, published 2024)
“Also recorded” adds a separate entry of the source. Where two headings read alike, the source gives them in different places.

Legend:
[1] = cited from earlier work
[2] = Human dosimetry in the Phase I study; format: in vivo; details: i.v. administration of 370 MBq
Excerpt: For PET diagnostic radiopharmaceuticals, only a single administration is required, usually intravenously. The investigational PET radiopharmaceutical [^18F]CTT1057 will be administered accordingly, as a single intravenous (i.v.) dose of approximately 370 MBq (266-407 MBq). […] Eur J Nucl Med Mol Imaging; 42:328-54). Human dosimetry was studied in the Phase I study. The effective dose was estimated at 0.023±0.007 mSv/MBq, which is in line as well with the effective dose of the commercial product [18F]FDG (0.019 mSv/MBq) according to the EANM guideline (Boellaard R, Delgado-Bolton R, Oyen WJG, et al (2015) FDG PET/CT: EANM procedure guidelines for tumour imaging: version 2.0. Eur J Nucl Med Mol Imaging; 42:328-54) and in other publications (0.020-0.025 mSv/MBq) (Kaushik A, Jaimini A, Tripathi M, et al (2015) Estimation of radiation dose to patients from (18) FDG whole body PET/CT investigations using dynamic PET scan protocol. Indian J Med Res; 142:721-31), as well as the effective dose of other PSMA PET agents (Behr SC, Aggarwal R, VanBrocklin HF, et al (2019) Phase I Study of CTT1057, an 18F-Labeled Imaging Agent with Phosphoramidate Core Targeting Prostate-Specific Membrane Antigen in Prostate Cancer. J Nucl Med; 60(7):910-6). The radiation dose estimated from an i.v. administration of 370 MBq of [18F]CTT1057 is 8.51 mSV. […]

PSMA [3] = biological target: T1, PSMA (Homo sapiens, UniProt Q04609); details: phosphoramidate scaffold, irreversible binding; cited from earlier work
[4] = human dosimetry, Phase I study; cited from earlier work
[5] = Phase I, 20 prostate cancer patients (n=5 primary staging, n=15 mCRPC), approx. 370 MBq i.v.; cited from earlier work
[6] = versus urea-based PET compounds; cited from earlier work
PSMA [7] = biological target: T1, PSMA; parameters: The [^18F]CTT1057 Phase-I study in 20 prostate cancer patients; from tissue; host or cells: tumour lesions in prostate cancer patients, imaged in vivo by PET; results quoted from Behr et al 2019 and Behr et al 2017; details: cited from earlier work
[8] = retrospective analysis of 1007 participants; cited from earlier work
prostate cancer tumors = details: cited from earlier work

T1 sequence (Q04609 whole entry): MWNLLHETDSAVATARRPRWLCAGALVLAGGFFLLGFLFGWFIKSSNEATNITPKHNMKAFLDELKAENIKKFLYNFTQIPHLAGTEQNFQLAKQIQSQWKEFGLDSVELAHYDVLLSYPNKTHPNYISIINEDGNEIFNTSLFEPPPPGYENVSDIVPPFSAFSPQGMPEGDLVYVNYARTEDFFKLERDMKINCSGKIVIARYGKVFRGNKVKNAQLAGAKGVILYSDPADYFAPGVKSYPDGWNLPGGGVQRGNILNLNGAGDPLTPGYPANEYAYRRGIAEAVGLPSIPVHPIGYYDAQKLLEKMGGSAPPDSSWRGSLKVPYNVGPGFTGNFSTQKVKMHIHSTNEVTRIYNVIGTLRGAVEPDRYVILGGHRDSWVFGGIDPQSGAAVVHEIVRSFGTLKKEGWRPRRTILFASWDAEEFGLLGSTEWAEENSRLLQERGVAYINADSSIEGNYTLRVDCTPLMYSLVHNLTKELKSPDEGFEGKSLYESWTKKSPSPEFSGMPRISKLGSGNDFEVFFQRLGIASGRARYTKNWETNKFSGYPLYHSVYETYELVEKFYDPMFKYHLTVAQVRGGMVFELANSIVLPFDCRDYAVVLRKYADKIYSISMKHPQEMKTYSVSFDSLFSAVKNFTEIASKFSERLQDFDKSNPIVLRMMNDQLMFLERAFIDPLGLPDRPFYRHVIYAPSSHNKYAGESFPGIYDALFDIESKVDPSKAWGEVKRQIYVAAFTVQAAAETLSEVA

OC[C@H]1OC(O)[C@H]([18F])[C@@H](O)[C@@H]1O (stereo partly shown) [[18F]FDG, [18F]Fluorodeoxyglucose]
effective dose ([1]; according to the EANM guideline): 0.019 mSv/MBq
effective dose ([1]; other publications (Kaushik et al 2015)): 0.020-0.025 mSv/MBq

O=C(O)CC[C@H](NP(=O)(O)OCCC[C@H](NC(=O)CC[C@H](NC(=O)CCCCCNC(=O)c1ccc([18F])cc1)C(=O)O)C(=O)O)C(=O)O [[^18F]CTT1057]
radiation dose estimated from an i.v. administration [2]: 8.51 mSV
binding affinity to PSMA (PSMA [3]): irreversibly binds to PSMA with high nanomolar affinity
effective dose [4]: 0.023±0.007 mSv/MBq
safety and tolerability [5]: acceptable safety profile without any radiotracer-related adverse reactions; also recorded: safe and well tolerated; also recorded: acceptable safety profile, without any radiotracer-related adverse reactions; also recorded: study has shown an acceptable safety profile without any radiotracer-related
exposure to kidneys and salivary glands [6]: lower exposure to kidneys and salivary glands
sensitivity of detection of metastatic lesions versus conventional imaging (PSMA [7]; Phase I study): higher sensitivity
image quality versus [68Ga]Ga-PSMA-11 PET (PSMA [7]; another smaller study (Behr et al 2017)): qualitatively similar
image quality on a Visual Analog Scale (VAS) of 1 to 100 (PSMA [7]; approx. 370 MBq i.v., 1=nondiagnostic, 100=perfect study, rated by 2 Nuclear Medicine physicians): 76±5.4

O=C([O-])CN(CCN(CC(=O)[O-])Cc1cc(CCC(=O)NCCCCCC(=O)NCCCC[C@H](NC(=O)N[C@@H](CCC(=O)O)C(=O)O)C(=O)O)ccc1[O-])Cc1cc(CCC(=O)O)ccc1[O-].[68Ga+3].[OH3+] [[^68Ga]Ga-PSMA-11]
tolerability, adverse events following infusion [8]: well tolerated with no adverse events following infusion
detection rates versus [18F]Fluciclovine (prostate cancer tumors; after radical prostatectomy, PSA <2.0 ng/ml, per-patient and per-region basis (Calais et al 2018)): superior
overall detection rate for prostate cancer recurrence versus [18F]Fluciclovine (prostate cancer tumors; larger prospective head-to-head study (Pernthaler et al 2019)): no statistical differences
